In ChEMBL document CHEMBL1201862, “PubChem BioAssay data set” (2004):
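The compound was tested at five concentrations on cells cultured in 96-well plates, with a 48-hour exposure period. Here, GI50 denotes the concentration required for 50% inhibition of growth.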 Calls of active or inactive are those of the source. No stated cut-off is given here; in the data, active = GI50 up to about 1.1 µM and inactive = higher.

Tests used:
Assay in all cases: growth of human tumour cells (NCI), 48 h
SNB-75 = system: SNB-75
K562 = system: K562
UACC-257 = system: UACC-257
CCRF-CEM = system: CCRF-CEM
786-0 = system: 786-0
UO-31 = system: UO-31
ACHN = system: ACHN
A498 = system: A498
HCC 2998 = system: HCC 2998
COLO 205 = system: COLO 205
OVCAR-5 = system: OVCAR-5
U-251 = system: U-251
IGROV-1 = system: IGROV-1
SN12C = system: SN12C
OVCAR-4 = system: OVCAR-4
DU-145 = system: DU-145
MDA-MB-231 = system: MDA-MB-231
MDA-MB-435 = system: MDA-MB-435
T47D = system: T47D

Row | Structure (SMILES) | GI50 (SNB-75) | GI50 (K562) | GI50 (UACC-257) | GI50 (CCRF-CEM) | GI50 (786-0) | GI50 (UO-31) | GI50 (ACHN) | GI50 (A498) | GI50 (HCC 2998) | GI50 (COLO 205) | GI50 (OVCAR-5) | GI50 (U-251) | GI50 (IGROV-1) | GI50 (SN12C) | GI50 (OVCAR-4) | GI50 (DU-145) | GI50 (MDA-MB-231) | GI50 (MDA-MB-435) | GI50 (T47D)
1 | COc1cccc(/C=N/C23CC4CC(CC(C4)C2)C3)c1 | 55.5 µM (inactive) | > 100 µM (inactive) | > 100 µM (inactive) | > 100 µM (inactive) | > 100 µM (inactive) | > 100 µM (inactive) | > 100 µM (inactive) | > 100 µM (inactive) | > 100 µM (inactive) | > 100 µM (inactive) | > 100 µM (inactive) | > 100 µM (inactive) | > 100 µM (inactive) | > 100 µM (inactive) | > 100 µM (inactive) | – | – | – | –
2 | OCCc1ccsc1-c1sc(-c2cc(CCO)c(-c3sccc3CCO)s2)cc1CCO | – | 7.94 µM (inactive) | 17 µM (inactive) | 16.4 µM (inactive) | 12 µM (inactive) | 12.4 µM (inactive) | 15.8 µM (inactive) | 22.5 µM (inactive) | 12.5 µM (inactive) | 11.6 µM (inactive) | 17.1 µM (inactive) | 12.7 µM (inactive) | 15.7 µM (inactive) | 21.3 µM (inactive) | 15.6 µM (inactive) | 15.5 µM (inactive) | 12.2 µM (inactive) | 17.7 µM (inactive) | –
3 | Nc1cccc2c1-c1c(cccc1[N+](=O)[O-])C2=O | > 100 µM (inactive) | > 100 µM (inactive) | > 100 µM (inactive) | > 100 µM (inactive) | > 100 µM (inactive) | 0.108 µM (active) | – | > 100 µM (inactive) | > 100 µM (inactive) | > 100 µM (inactive) | > 100 µM (inactive) | > 100 µM (inactive) | > 100 µM (inactive) | > 100 µM (inactive) | > 100 µM (inactive) | – | – | – | –
4 | COc1cnc2oc3ccc(O)cc3c2c1-c1ccccc1 | > 100 µM (inactive) | 22.1 µM (inactive) | 88.5 µM (inactive) | 59.3 µM (inactive) | 21.9 µM (inactive) | 66.7 µM (inactive) | > 100 µM (inactive) | > 100 µM (inactive) | 27.7 µM (inactive) | 30.6 µM (inactive) | 24.1 µM (inactive) | > 100 µM (inactive) | – | > 100 µM (inactive) | > 100 µM (inactive) | > 100 µM (inactive) | – | > 100 µM (inactive) | 3.65 µM (inactive)
5 | CCOC(=O)/C=C1/Nc2cc(F)c(F)cc2NC1=O | > 100 µM (inactive) | > 100 µM (inactive) | > 100 µM (inactive) | > 100 µM (inactive) | > 100 µM (inactive) | > 100 µM (inactive) | > 100 µM (inactive) | – | > 100 µM (inactive) | > 100 µM (inactive) | > 100 µM (inactive) | > 100 µM (inactive) | – | > 100 µM (inactive) | > 100 µM (inactive) | > 100 µM (inactive) | > 100 µM (inactive) | > 100 µM (inactive) | –
6 | COc1ccc([C@H]2[C@H](C)C3=Nc4ccccc4CN32)cc1 | – | 39.2 µM (inactive) | > 100 µM (inactive) | – | 54.1 µM (inactive) | > 100 µM (inactive) | 86.9 µM (inactive) | > 100 µM (inactive) | 41.9 µM (inactive) | 45.1 µM (inactive) | > 100 µM (inactive) | 51.5 µM (inactive) | 63.7 µM (inactive) | 63 µM (inactive) | > 100 µM (inactive) | > 100 µM (inactive) | > 100 µM (inactive) | 31.4 µM (inactive) | –
7 | CCN(CC)C(=O)Cn1c2c(c3ccccc31)CCCC2 | – | 68.4 µM (inactive) | > 100 µM (inactive) | 89.3 µM (inactive) | > 100 µM (inactive) | 23.2 µM (inactive) | 65.2 µM (inactive) | > 100 µM (inactive) | > 100 µM (inactive) | > 100 µM (inactive) | > 100 µM (inactive) | – | > 100 µM (inactive) | > 100 µM (inactive) | > 10 µM (inactive) | – | – | 91.4 µM (inactive) | –
8 | O=C(NCCn1ccnn1)Nc1ccccc1 | > 100 µM (inactive) | > 100 µM (inactive) | > 100 µM (inactive) | > 100 µM (inactive) | > 100 µM (inactive) | – | > 100 µM (inactive) | – | > 100 µM (inactive) | > 100 µM (inactive) | > 100 µM (inactive) | > 100 µM (inactive) | > 100 µM (inactive) | > 100 µM (inactive) | – | > 100 µM (inactive) | > 100 µM (inactive) | > 100 µM (inactive) | –
9 | CC(=O)C1=CN=C2C(=O)N(c3ccccc3)N(C)C12C (stereo not drawn) | 24.7 µM (inactive) | > 100 µM (inactive) | > 100 µM (inactive) | > 100 µM (inactive) | > 100 µM (inactive) | > 100 µM (inactive) | > 100 µM (inactive) | > 100 µM (inactive) | 16.9 µM (inactive) | > 100 µM (inactive) | > 100 µM (inactive) | > 100 µM (inactive) | > 100 µM (inactive) | > 100 µM (inactive) | > 100 µM (inactive) | > 100 µM (inactive) | > 100 µM (inactive) | > 100 µM (inactive) | –
10 | CC(=O)c1ccc(-c2oc(-c3ccccc3)cc2-c2ccc3c(c2)OCO3)s1 | > 100 µM (inactive) | > 100 µM (inactive) | > 100 µM (inactive) | 0.0313 µM (active) | > 100 µM (inactive) | > 100 µM (inactive) | > 100 µM (inactive) | > 100 µM (inactive) | > 100 µM (inactive) | > 100 µM (inactive) | > 100 µM (inactive) | > 100 µM (inactive) | > 100 µM (inactive) | > 100 µM (inactive) | – | > 100 µM (inactive) | – | 3.07 µM (inactive) | 17 µM (inactive)
11 | Cc1nc2ccc(S(=O)(=O)Nc3ccc(Cl)cc3)cc2c(=O)n1NC(=O)CNc1ccc(Cl)cc1 | > 100 µM (inactive) | > 100 µM (inactive) | > 100 µM (inactive) | > 100 µM (inactive) | > 100 µM (inactive) | > 100 µM (inactive) | > 100 µM (inactive) | – | > 100 µM (inactive) | > 100 µM (inactive) | > 100 µM (inactive) | > 100 µM (inactive) | > 100 µM (inactive) | > 100 µM (inactive) | > 100 µM (inactive) | > 100 µM (inactive) | > 100 µM (inactive) | > 100 µM (inactive) | –
12 | Nc1nc(Cl)cc(OCC2(CO)CCCC2)n1 | > 100 µM (inactive) | > 100 µM (inactive) | > 100 µM (inactive) | > 100 µM (inactive) | > 100 µM (inactive) | – | > 100 µM (inactive) | > 100 µM (inactive) | > 100 µM (inactive) | – | > 100 µM (inactive) | > 100 µM (inactive) | > 100 µM (inactive) | > 100 µM (inactive) | > 100 µM (inactive) | > 100 µM (inactive) | – | > 100 µM (inactive) | –
13 | O=C(c1cc(Cl)ccc1Cl)N1CCN(C(=O)c2cc(Cl)ccc2Cl)CC1 | 33.1 µM (inactive) | > 100 µM (inactive) | > 100 µM (inactive) | > 100 µM (inactive) | 91.2 µM (inactive) | > 100 µM (inactive) | 94.4 µM (inactive) | 27 µM (inactive) | > 100 µM (inactive) | – | > 100 µM (inactive) | > 100 µM (inactive) | > 100 µM (inactive) | > 100 µM (inactive) | > 100 µM (inactive) | > 100 µM (inactive) | > 100 µM (inactive) | – | 48.8 µM (inactive)
14 | CCOC(=O)c1c(SCC#N)n(-c2ccccc2)c(=S)n(-c2ccccc2)c1=O | 25.8 µM (inactive) | 18.2 µM (inactive) | 61.2 µM (inactive) | 13.5 µM (inactive) | 53.5 µM (inactive) | 37.5 µM (inactive) | 28.1 µM (inactive) | – | – | 61.7 µM (inactive) | > 100 µM (inactive) | 33 µM (inactive) | 30.8 µM (inactive) | 32.4 µM (inactive) | 40.7 µM (inactive) | > 100 µM (inactive) | – | 38.7 µM (inactive) | 44 µM (inactive)
15 | CC(=O)/N=C1\NC(=O)/C(=C/c2ccccc2Cl)N1C | > 100 µM (inactive) | – | > 100 µM (inactive) | > 100 µM (inactive) | > 100 µM (inactive) | > 100 µM (inactive) | > 100 µM (inactive) | – | > 100 µM (inactive) | > 100 µM (inactive) | > 100 µM (inactive) | > 100 µM (inactive) | > 100 µM (inactive) | > 100 µM (inactive) | > 100 µM (inactive) | > 100 µM (inactive) | > 100 µM (inactive) | > 100 µM (inactive) | –
16 | Cc1nc2c(O)cc3c4c([nH]c3c2nc1C)C(=O)CCC4 | – | 5.06 µM (inactive) | 95.1 µM (inactive) | 4.07 µM (inactive) | 5.85 µM (inactive) | 14.3 µM (inactive) | 5.45 µM (inactive) | 19.5 µM (inactive) | 1.71 µM (inactive) | 2.26 µM (inactive) | 4.24 µM (inactive) | 2.16 µM (inactive) | – | 4.49 µM (inactive) | 2.87 µM (inactive) | 1.99 µM (inactive) | 7.45 µM (inactive) | 0.541 µM (active) | –
17 | C1=C[C@@H]2c3ccc4cnccc4c3NC[C@@H]2C1 | > 100 µM (inactive) | > 100 µM (inactive) | > 100 µM (inactive) | > 100 µM (inactive) | > 100 µM (inactive) | 74.3 µM (inactive) | > 100 µM (inactive) | 33.6 µM (inactive) | > 100 µM (inactive) | > 100 µM (inactive) | > 100 µM (inactive) | > 100 µM (inactive) | > 100 µM (inactive) | > 100 µM (inactive) | – | > 100 µM (inactive) | – | > 100 µM (inactive) | > 100 µM (inactive)
